Test results reported in ChEMBL document CHEMBL1909046, “DrugMatrix in vitro pharmacology data”.
pIC50, pKi: −log10 of the molar value.

Assays:
[1] = biological target: T1, Alpha-2A adrenergic receptor (Homo sapiens, UniProt P08913); assay type: cell membranes, Sf9, Membrane; settings: for IC50: sf9; for pIC50: read-out: IC50; for pKi: read-out: Ki; as to all read-outs here: in other assays of this panel Not Active means under 50% inhibition at 10 µM
T1 sequence (P08913 whole entry): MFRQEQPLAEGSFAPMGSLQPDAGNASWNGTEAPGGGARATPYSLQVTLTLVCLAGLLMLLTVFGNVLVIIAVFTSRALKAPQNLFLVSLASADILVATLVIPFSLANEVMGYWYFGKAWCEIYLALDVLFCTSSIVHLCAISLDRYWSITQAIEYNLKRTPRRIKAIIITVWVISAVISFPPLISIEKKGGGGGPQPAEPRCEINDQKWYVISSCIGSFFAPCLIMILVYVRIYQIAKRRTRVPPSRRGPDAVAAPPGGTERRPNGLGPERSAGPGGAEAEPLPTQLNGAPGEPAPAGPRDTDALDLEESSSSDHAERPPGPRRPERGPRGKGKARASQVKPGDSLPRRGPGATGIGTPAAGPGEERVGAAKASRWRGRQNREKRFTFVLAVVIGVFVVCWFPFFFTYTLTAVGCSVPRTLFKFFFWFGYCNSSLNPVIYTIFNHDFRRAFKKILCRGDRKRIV

D(3) dopamine receptor = D(3) dopamine receptor (Homo sapiens, UniProt P35462); test: DRUGMATRIX: Dopamine D3 radioligand binding (ligand: [3H] Spiperone); assay type: cell membranes, CHO, Membrane; settings: for IC50: cho; for pIC50: read-out: IC50; for pKi: read-out: Ki
[2] = biological target: Matrix metalloproteinase-9 (Homo sapiens, UniProt P14780); test: biochemical; assay type: cell-based;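 also: inhibition of isolated MMP-9 enzyme activity toward a synthetic peptide substrate, from the DrugMatrix protease screening panel; in other assays of this panel Not Active means under 50% inhibition at 10 µM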
[3] = biological target: Mitogen-activated protein kinase 14 (Homo sapiens, UniProt Q16539); set-up: species or system Escherichia coli; settings: for pIC50: read-out: IC50;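 as to all read-outs here: inhibition of p38alpha enzyme activity in a biochemical kinase assay, with myelin basic protein serving as substrate; in other assays of this panel Not Active means under 50% inhibition at 10 µM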
Acetylcholinesterase = Acetylcholinesterase (Homo sapiens, UniProt P22303); test: DRUGMATRIX: Acetylcholinesterase enzyme inhibition (substrate: acetylthiocholine); assay type: cell-based, HEK293; settings: hek293; Not Active = under 50% inhibition at 10 µM
Sequence of Acetylcholinesterase (P22303 whole entry): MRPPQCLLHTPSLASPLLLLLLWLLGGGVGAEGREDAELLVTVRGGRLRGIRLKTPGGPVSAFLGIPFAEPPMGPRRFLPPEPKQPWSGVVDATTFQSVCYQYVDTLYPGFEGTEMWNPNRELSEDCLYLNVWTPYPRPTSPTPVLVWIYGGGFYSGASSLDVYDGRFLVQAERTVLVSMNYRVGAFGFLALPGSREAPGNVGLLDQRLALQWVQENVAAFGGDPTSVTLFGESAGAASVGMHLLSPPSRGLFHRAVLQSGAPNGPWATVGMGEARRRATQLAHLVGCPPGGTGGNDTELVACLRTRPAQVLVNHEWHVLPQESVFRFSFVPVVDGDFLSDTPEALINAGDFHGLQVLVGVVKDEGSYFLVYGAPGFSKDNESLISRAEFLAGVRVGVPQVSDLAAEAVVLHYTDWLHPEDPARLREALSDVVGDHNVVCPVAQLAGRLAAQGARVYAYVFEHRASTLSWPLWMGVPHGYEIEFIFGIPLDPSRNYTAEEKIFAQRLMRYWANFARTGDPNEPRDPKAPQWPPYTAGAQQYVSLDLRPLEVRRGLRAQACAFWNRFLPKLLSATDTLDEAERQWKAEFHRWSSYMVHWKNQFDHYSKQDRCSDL

Sequence of D(3) dopamine receptor (P35462 whole entry): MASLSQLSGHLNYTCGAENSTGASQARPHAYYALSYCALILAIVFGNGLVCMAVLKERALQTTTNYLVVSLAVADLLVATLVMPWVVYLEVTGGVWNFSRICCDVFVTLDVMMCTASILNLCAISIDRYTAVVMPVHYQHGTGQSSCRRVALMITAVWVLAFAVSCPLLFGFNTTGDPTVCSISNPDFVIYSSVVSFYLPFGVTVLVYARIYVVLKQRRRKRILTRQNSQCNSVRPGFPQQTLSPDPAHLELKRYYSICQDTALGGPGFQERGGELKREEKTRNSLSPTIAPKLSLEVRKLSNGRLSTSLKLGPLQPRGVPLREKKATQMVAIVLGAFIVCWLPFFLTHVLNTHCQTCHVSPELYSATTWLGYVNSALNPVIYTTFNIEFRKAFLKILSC
Sequence of Mitogen-activated protein kinase 14 (Q16539 whole entry): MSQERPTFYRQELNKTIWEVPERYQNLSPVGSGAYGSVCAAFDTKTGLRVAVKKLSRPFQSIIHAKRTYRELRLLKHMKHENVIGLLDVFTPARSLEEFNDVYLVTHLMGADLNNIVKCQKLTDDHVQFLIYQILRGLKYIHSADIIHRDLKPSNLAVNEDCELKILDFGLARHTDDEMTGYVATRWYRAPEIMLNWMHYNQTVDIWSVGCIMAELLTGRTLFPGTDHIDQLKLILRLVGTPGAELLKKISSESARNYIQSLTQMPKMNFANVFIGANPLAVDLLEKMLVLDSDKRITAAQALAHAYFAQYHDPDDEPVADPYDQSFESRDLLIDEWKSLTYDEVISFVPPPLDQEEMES
Sequence of Matrix metalloproteinase-9 (P14780 whole entry): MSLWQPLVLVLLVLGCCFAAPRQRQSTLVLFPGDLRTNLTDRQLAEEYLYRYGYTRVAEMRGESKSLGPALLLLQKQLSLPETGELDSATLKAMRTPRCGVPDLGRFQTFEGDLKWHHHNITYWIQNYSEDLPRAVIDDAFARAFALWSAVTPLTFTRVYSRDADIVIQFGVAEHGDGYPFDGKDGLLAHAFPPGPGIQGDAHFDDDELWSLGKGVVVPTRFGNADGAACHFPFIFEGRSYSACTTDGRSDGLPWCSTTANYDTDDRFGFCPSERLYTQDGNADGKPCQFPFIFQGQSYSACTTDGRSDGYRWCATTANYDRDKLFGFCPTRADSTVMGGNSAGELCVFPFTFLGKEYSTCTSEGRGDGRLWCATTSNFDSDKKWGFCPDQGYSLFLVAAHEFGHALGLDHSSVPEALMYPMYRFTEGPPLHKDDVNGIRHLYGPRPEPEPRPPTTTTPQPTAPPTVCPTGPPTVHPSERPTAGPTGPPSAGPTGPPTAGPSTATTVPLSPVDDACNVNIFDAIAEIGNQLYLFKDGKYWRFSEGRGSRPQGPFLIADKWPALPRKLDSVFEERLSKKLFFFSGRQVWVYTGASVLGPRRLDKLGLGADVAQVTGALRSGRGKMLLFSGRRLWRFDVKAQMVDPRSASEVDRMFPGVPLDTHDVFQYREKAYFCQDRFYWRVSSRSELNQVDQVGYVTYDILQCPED

Row | Structure (SMILES) | IC50 [1] | IC50 (D(3) dopamine receptor) | IC50 [2] | pIC50 [3] | IC50 (Acetylcholinesterase) | IC50 [3] | pIC50 (D(3) dopamine receptor) | pKi (D(3) dopamine receptor) | pIC50 [1] | pKi [1] | pIC50 ([2]; read-out: IC50)
1 | O=C(c1ccccc1C(F)(F)F)N1CCC(Cc2ccccc2)CC1 | Not Active | Not Active | Not Active | 6.15 | Not Active |  |  |  |  |  | 
2 | O=C/C=C/c1ccccc1 | Not Active | Not Active | Not Active |  | Not Active | Not Active |  |  |  |  | 
3 | Nc1ccc2c3c(cccc13)C(=O)NC2=O | Not Active | Not Active | Not Active |  | Not Active | Not Active |  |  |  |  | 
4 | COc1ccc(C(=O)N2CCCC2=O)cc1 | Not Active | Not Active | Not Active |  | Not Active | Not Active |  |  |  |  | 
5 | O=c1cnn([C@@H]2O[C@H](CO)[C@@H](O)[C@H]2O)c(=O)[nH]1 [6-AZAURIDINE] | Not Active | Not Active | Not Active |  | Not Active | Not Active |  |  |  |  | 
6 | CC[C@H](C)[C@H]1O[C@]2(C=C[C@@H]1C)C[C@@H]1C[C@@H](C/C=C(\C)[C@@H](O[C@H]3C[C@H](OC)[C@@H](O[C@H]4C[C@H](OC)[C@@H](O)[C@H](C)O4)[C@H](C)O3)[C@@H](C)/C=C/C=C3\CO[C@@H]4[C@H](O)C(C)=C[C@@H](C(=O)O1)[C@]34O)O2.CO[C@H]1C[C@H](O[C@H]2[C@H](C)O[C@@H](O[C@@H]3/C(C)=C/C[C@@H]4C[C@@H](C[C@]5(C=C[C@H](C)[C@@H](C(C)C)O5)O4)OC(=O)[C@@H]4C=C(C)[C@@H](O)[C@H]5OC/C(=C\C=C\[C@@H]3C)[C@]54O)C[C@@H]2OC)O[C@@H](C)[C@@H]1O [ABAMECTIN] | Not Active | Not Active | Not Active |  | Not Active | Not Active |  |  |  |  | 
7 | NCCCC(O)(P(=O)(O)O)P(=O)(O)O [ALENDRONIC ACID] | Not Active | Not Active | Not Active |  | Not Active | Not Active |  |  |  |  | 
8 | Cc1nnc2n1-c1ccc(Cl)cc1C(c1ccccc1)=NC2 [ALPRAZOLAM] | Not Active | Not Active | Not Active |  | Not Active | Not Active |  |  |  |  | 
9 | Cn1c(=O)c2[nH]cnc2n(C)c1=O.Cn1c(=O)c2[nH]cnc2n(C)c1=O.NCCN [AMINOPHYLLINE] | Not Active | Not Active | Not Active |  | Not Active | Not Active |  |  |  |  | 
10 | CCC1(CCC(C)C)C(=O)NC(=O)NC1=O [AMOBARBITAL] | Not Active | Not Active | Not Active |  | Not Active | Not Active |  |  |  |  | 
11 | CC1(C)S[C@@H]2[C@H](NC(=O)[C@H](N)c3ccccc3)C(=O)N2[C@H]1C(=O)O [AMPICILLIN] | Not Active | Not Active | Not Active |  | Not Active | Not Active |  |  |  |  | 
12 | COc1ccc(C2C(=O)c3ccccc3C2=O)cc1 [ANISINDIONE] | Not Active | Not Active | Not Active |  | Not Active | Not Active |  |  |  |  | 
13 | O=C1O[C@H]([C@@H](O)CO)C(O)=C1O [ASCORBIC ACID] | Not Active | Not Active | Not Active |  | Not Active | Not Active |  |  |  |  | 
14 | CN1[C@@H]2CC[C@H]1C[C@@H](OC(=O)C(CO)c1ccccc1)C2 (stereo partly drawn) [ATROPINE] | Not Active | Not Active | Not Active |  | Not Active | Not Active |  |  |  |  | 
15 | CC(C(=O)O)c1ccc2oc(-c3ccc(Cl)cc3)nc2c1 (stereo not drawn) [BENOXAPROFEN] | Not Active | Not Active | Not Active |  | Not Active | Not Active |  |  |  |  | 
16 | COc1ccc2cc3[n+](cc2c1OC)CCc1cc2c(cc1-3)OCO2.[Cl-] [BERBERINE CHLORIDE] | Not Active | Not Active | Not Active |  |  | Not Active |  |  |  |  | 
17 | O=C(O)CCNC(=O)c1ccccc1 [BETAMIPRON] | Not Active | Not Active | Not Active |  | Not Active | Not Active |  |  |  |  | 
18 | CC(=O)Oc1ccc(C(c2ccc(OC(C)=O)cc2)c2ccccn2)cc1 [BISACODYL] | Not Active | Not Active | Not Active |  | Not Active | Not Active |  |  |  |  | 
19 | Cc1cc2c(OCC(CNC(C)(C)C)OC(=O)c3ccccc3)cccc2[nH]1 (stereo not drawn) [BOPINDOLOL] | Not Active | Not Active | Not Active |  | Not Active | Not Active |  |  |  |  | 

Row | Structure (SMILES) | IC50 [1] | IC50 (D(3) dopamine receptor) | IC50 [2] | pIC50 [3] | IC50 (Acetylcholinesterase) | IC50 [3] | pIC50 (D(3) dopamine receptor) | pKi (D(3) dopamine receptor) | pIC50 [1] | pKi [1] | pIC50 ([2]; read-out: IC50)
20 | Brc1c(NC2=NCCN2)ccc2nccnc12 [BRIMONIDINE] |  | Not Active | Not Active |  | Not Active | Not Active |  |  |  |  | 
21 | CN(C)[C@@H]1C(O)=C(C(N)=O)C(=O)[C@@]2(O)C(O)=C3C(=O)c4c(O)ccc(Cl)c4[C@@](C)(O)[C@H]3C[C@@H]12 [CHLORTETRACYCLINE] | Not Active | Not Active | Not Active |  | Not Active | Not Active |  |  |  |  | 
22 | CN/C(=N\CCSCc1nc[nH]c1C)NC#N [CIMETIDINE] | Not Active | Not Active | Not Active |  | Not Active | Not Active |  |  |  |  | 
23 | COc1cc(N)c(Cl)cc1C(=O)NC1CCN(CCCOc2ccc(F)cc2)CC1OC (stereo not drawn) [CISAPRIDE] |  |  | Not Active |  | Not Active | Not Active | 6.84 | 7.31 |  |  | 
24 | CCC(=O)O[C@]1(C(=O)CCl)[C@@H](C)C[C@H]2[C@@H]3CCC4=CC(=O)C=C[C@]4(C)[C@@]3(F)[C@@H](O)C[C@@]21C [CLOBETASOL PROPIONATE] | Not Active | Not Active | Not Active |  | Not Active | Not Active |  |  |  |  | 
25 | O=C1CN=C(c2ccccc2Cl)c2cc([N+](=O)[O-])ccc2N1 [CLONAZEPAM] | Not Active | Not Active | Not Active |  | Not Active | Not Active |  |  |  |  | 
26 | Nc1ccn([C@@H]2O[C@H](CO)[C@@H](O)[C@@H]2O)c(=O)n1 [CYTARABINE] | Not Active | Not Active | Not Active |  | Not Active | Not Active |  |  |  |  | 
27 | C[C@@H]1C[C@H]2[C@@H]3CCC4=CC(=O)C=C[C@]4(C)[C@@]3(F)[C@@H](O)C[C@]2(C)[C@H]1C(=O)CO [DESOXIMETASONE] | Not Active | Not Active | Not Active |  | Not Active | Not Active |  |  |  |  | 
28 | C[C@@H]1C[C@H]2[C@@H]3CCC4=CC(=O)C=C[C@]4(C)[C@@]3(F)[C@@H](O)C[C@]2(C)[C@@]1(O)C(=O)CO [DEXAMETHASONE] | Not Active | Not Active | Not Active |  | Not Active | Not Active |  |  |  |  | 
29 | CN(C)CC[C@@H](c1ccc(Cl)cc1)c1ccccn1 [DEXCHLORPHENIRAMINE] |  | Not Active | Not Active |  | Not Active | Not Active |  |  | 4.69 | 5.12 | 
30 | C[C@@H]1CC[C@@]2(OC1)O[C@H]1[C@@H](O)[C@H]3[C@@H]4CC[C@H]5C[C@@H](O[C@@H]6O[C@H](CO)[C@H](O[C@@H]7O[C@H](CO)C(O)[C@H](O[C@@H]8OC[C@@H](O)[C@H](O)[C@H]8O)[C@H]7O[C@@H]7O[C@H](CO)[C@H](O)[C@H](O[C@@H]8O[C@H](CO)[C@@H](O)[C@H](O)[C@H]8O)[C@H]7O)[C@H](O)[C@H]6O)[C@H](O)C[C@]5(C)[C@H]4CC[C@]3(C)[C@H]1[C@@H]2C (stereo partly drawn) [DIGITONIN] | Not Active | Not Active | Not Active |  | Not Active | Not Active |  |  |  |  | 
31 | OC(CCCN1CCCCC1)(c1ccccc1)c1ccccc1 [DIPHENIDOL] | Not Active |  | Not Active |  | Not Active | Not Active | 5.64 | 6.11 |  |  | 
32 | C[C@H]1O[C@@H](n2cc(F)c(=O)[nH]c2=O)[C@H](O)[C@@H]1O [DOXIFLURIDINE] | Not Active | Not Active | Not Active |  | Not Active | Not Active |  |  |  |  | 
33 | Cn1c(=O)c2c(ncn2CC(O)CO)n(C)c1=O (stereo not drawn) [DYPHYLLINE] | Not Active | Not Active | Not Active |  | Not Active | Not Active |  |  |  |  | 
34 | CC[C@H]1CN2CCc3cc(OC)c(OC)cc3[C@@H]2C[C@@H]1C[C@H]1NCCc2cc(OC)c(OC)cc21 [EMETINE] |  | Not Active | Not Active |  | Not Active | Not Active |  |  | 7.42 | 7.85 | 
35 | COc1ccc2c3c1O[C@H]1C[C@@H](O)C=C[C@@]31CCN(C)C2 [GALANTAMINE] | Not Active | Not Active | Not Active |  |  | Not Active |  |  |  |  | 
36 | N=C(N)NC(=O)Cc1c(Cl)cccc1Cl [GUANFACINE] |  | Not Active | Not Active |  | Not Active | Not Active |  |  |  |  | 
37 | Oc1c(Cl)cc(Cl)c(Cl)c1Cc1c(O)c(Cl)cc(Cl)c1Cl [HEXACHLOROPHENE] |  | Not Active | Not Active | 7.06 |  |  |  |  | 5.26 | 5.69 | 
38 | COc1cc2nc(N3CCN(C(=O)c4ccco4)CC3)nc(N)c2cc1OC [PRAZOSIN] |  | Not Active |  |  | Not Active | Not Active |  |  |  |  | 5.16
